Key:
Assay in all cases: Agarose dilution MIC assay
Assay type in all cases: cell-based
[1] = tested on: K. pneumoniae; conditions: K. pnenmoniae strain KPN001
Excerpt: (§1) The agarose dilution assay measures antimicrobial activity of peptides and peptide analogues. The activity is expressed as the minimum inhibitory concentration (MIC) in μg/ml of the peptide.
(§2) In order to mimic in vivo conditions, calcium and magnesium supplemented Mueller Hinton broth is used in combination with a low EEO agarose as the bacterial growth medium. Agarose, rather than agar, is used as the charged groups in agar prevent peptide diffusion through the medium. The medium is autoclaved, then cooled to 50-55° C. in a water bath before aseptic addition of a peptide solution. The same volume of different concentrations of peptide solution is added to the cooled, molten agarose that is then poured into a petri plate to a depth of 3-4 mm and allowed to solidify.
(§3) The bacterial inoculum is adjusted to a 0.5 McFarland turbidity standard (PML Microbiological) and then diluted 1:10 before application on to the agarose plate. The final inoculum applied to the agarose is approximately 10^4 CFU in a 5-8 mm diameter spot. The agarose plates are incubated at 35-37° C. for 16 to 20 hours.

[2] = tested on: S. pyogenes; conditions: S. pyogenes strain SPY001
Excerpt: as §1, §2, §3

[3] = tested on: C. jeikeium; conditions: C. jeikeium strain CJK005
Excerpt: as §1, §2, §3

[4] = tested on: A. calcoaceticus; conditions: A. calcoaceticus strain ACA002
Excerpt: as §1, §2, §3

[5] = tested on: C. neoformans; conditions: C. neoformans strain CNE001
Excerpt: as §1, §2, §3

[6] = tested on: C. albicans; conditions: C. albicans strain CAL002; agarose dilution
Excerpt: as §1, §2, §3

[7] = tested on: P. aeruginosa; conditions: P. aeruginosa strain PAE004; agarose dilution
Excerpt: as §1, §2, §3

[8] = tested on: S. pneumoniae; conditions: S. pneumoniae strain SPN002
Excerpt: as §1, §2, §3

[9] = tested on: S. maltophilia; conditions: S. maltophilia strain SMA002
Excerpt: as §1, §2, §3

[10] = tested on: E. cloacae; conditions: E. cloacae strain ECL007
Excerpt: as §1, §2, §3

[11] = tested on: S. epidermidis; conditions: S. epidermidis strain SEP010; agarose dilution
Excerpt: as §1, §2, §3

[12] = tested on: S. aureus; conditions: S. aureus strain SAU014; agarose dilution
Excerpt: as §1, §2, §3

[13] = tested on: E. faecalis; conditions: E. faecalis strain EFS001
Excerpt: as §1, §2, §3

[14] = tested on: S. mitis; conditions: S. mitis strain SMT014
Excerpt: as §1, §2, §3

[15] = tested on: E. coli; conditions: E. coli strain ECO005
Excerpt: as §1, §2, §3

[16] = tested on: S. marcescens; conditions: S. marcescens strain SMS003
Excerpt: as §1, §2, §3

Substance	Minimum Inhibitory Concentration [1]	Minimum Inhibitory Concentration [2]	Minimum Inhibitory Concentration [3]	Minimum Inhibitory Concentration [4]	Minimum Inhibitory Concentration [5]	Minimum Inhibitory Concentration [6]	Minimum Inhibitory Concentration [7]	Minimum Inhibitory Concentration [8]	Minimum Inhibitory Concentration [9]	Minimum Inhibitory Concentration [10]	Minimum Inhibitory Concentration [11]	Minimum Inhibitory Concentration [12]	Minimum Inhibitory Concentration [13]	Minimum Inhibitory Concentration [14]	Minimum Inhibitory Concentration [15]	Minimum Inhibitory Concentration [16]
R L W V W W V W R r [Peptide 11F68CN]	2 µg/mL	1 µg/mL	0.5 µg/mL	1 µg/mL	8 µg/mL	32 µg/mL	32 µg/mL	2 µg/mL	2 µg/mL	32 µg/mL	1 µg/mL	2 µg/mL	2 µg/mL	1 µg/mL	2 µg/mL	>128 µg/mL
I L R R W V W W V W R R K [Peptide 11F5CN]	64 µg/mL	2 µg/mL	0.5 µg/mL	4 µg/mL	8 µg/mL	32 µg/mL	64 µg/mL	4 µg/mL	16 µg/mL	128 µg/mL	2 µg/mL	8 µg/mL	16 µg/mL	2 µg/mL	16 µg/mL	>128 µg/mL
i L K K W P W W P W R R k [Peptide 11E3CN]	32 µg/mL	1 µg/mL	0.5 µg/mL	4 µg/mL	4 µg/mL	32 µg/mL	64 µg/mL	4 µg/mL	64 µg/mL	>128 µg/mL	4 µg/mL	8 µg/mL	64 µg/mL	2 µg/mL	8 µg/mL	>128 µg/mL

From patent publication US6835536B2, “Antimicrobial cationic peptides and formulations thereof” (Micrologix Biotech Inc., priority 2001, dated 2004)
